Measured values taken from US6905716B2, “Propionic acid based preservative agent for animal and vegetable products” (TINE Norske Meierier BA, priority 2000, dated 2005).

Experiments:
[1] = system: grass; assay: Ensilage of grass in preserving jars, Example 4; conditions: laboratory silos
Method: The jars were stored in a climatic test chamber at 20° C. For the control without ensiling agent, water was added in a volume equivalent to 15 weight % FLP with and without bacteria. The additive of 40% weight FLP was added in an amount corresponding to 6 liters/tonne of grass. The FLP consisted of ¾ lactose and salts and ¼ organic acids (the ratio of propionic acid to lactic acid was 1:3). The agent with bacteria contained 8 log10 colony forming units of lactic acid bacteria per ml FLP and <8 log10 cfu propionic acid bacteria per ml FLP.

[2] = system: undesirable microorganisms; conditions: typically 0.1-0.5 g/l; potassium sorbate and/or sodium benzoate

Row | SMILES | silage effluent, formic acid compared with addition of FLP [1] | risk of contamination by undesirable microorganisms during fermentation [2]
1 | O=CO [formic acid] | More silage effluent | 
2 | C/C=C/C=C/C(=O)[O-].[K+] [potassium sorbate] |  | reduced the risk of contamination
3 | O=C([O-])c1ccccc1.[Na+] [sodium benzoate] |  | reduced the risk of contamination
